# Laboratory results published in US6951651B2, “CTL epitope analogs” (priority 1999, dated 2005).
# Where two headings read alike, the source gives them in different places. Ends that are not written are not given here.
# Experiments:
# T cell clone 3-3F4 [1] = experiment: PS-SCL screen and simultaneous native peptide titration, T2 cells, T cell clone 3-3F4; assay type: cell-based, human; conditions: E:T 5, read-out: concentration sensitizing 50% maximal lysis of T2 cells by 3-3F4
# Protocol: Chromium release assays were performed according to the methods of (20). Briefly, target cell lines (antigen presenting cells which present pp65495-503) were labeled for one hour with 200 μCi/ml ^51Cr (ICN™, Costa Mesa, Calif.). HCMV infected targets were prepared as follows. Five-hundred thousand fibroblasts were pretreated with 800 U/10^6 recombinant IFN-γ, (Preprotech™, Rocky Hill, N.J.) to upregulate MHC class I expression and HCMV was added at an m.o.i. of 4. Cells were incubated with virus for two hours at 37° C., in a 5% CO2 incubator. Fresh FBM containing IFN-γ was then added and the cells incubated for an additional 14 hours. Infected fibroblasts were trypsinized, labeled with ^51Cr as described above and used in the assay at an effector-to-target ratio (E/T) of 50 and 10. […]
# In the assay, loaded targets and effectors were mixed in culture and incubated for four hours, at which time chromium release was measured. Supernatants were collected on filter frames (Skatron™, Oslo, Norway) and radioactivity determined in a Cobra II gamma counter (Packard™, Meriden, Conn.). For each assay, spontaneous release from the target cells in the absence of effector CTL and maximum possible release after treatment with 2% SDS (Baker Chemicals™, Phillipsburg, N.J.) was determined. […]
# T cell clone 3-3F4 [2] = experiment: Flow-cytometric HLA A2-Ig dimer binding to T cell clone 3-3F4; design: species or system human; conditions: specific fluorescence, peptide-loaded HLA A2-Ig dimers
# Protocol: HLA A2-Ig dimer aliquots were individually loaded with a series of peptides, and incubated with two different T cell clones, 3-3F4 and VB57. The soluble HLA-A2-Ig complexes (HLA dimers) were loaded with peptide according to the methods of Greten et al., Proc. Natl. Acad. Sci. USA 95:7568-7573 (1998). For each peptide analog to be tested, 10 μg of HLA dimers in 10 μl PBS containing 0.02% NaN3 (Baker Chemical™, Phillipsburg, N.J.) was incubated for three days at 4° C. with 660-fold molar excess peptide. Dimers also were loaded with the pp65495-503 native peptide, an irrelevant peptide (pp54 B*0702 epitope), and 2 μl PBS buffer containing 0.02% NaN3, in all experiments to serve as controls. One microgram aliquots of peptide loaded dimers were mixed with 0.2 million of either T cell clone 3-3F4 or VB57 for 75 minutes on ice. Cells were washed in PBS containing 2% FBS and 0.02% NaN3 (WB), and subsequently stained with 0.9 μl/sample of goat anti-mouse IgG1-PE (Caltag™, Burlingame, Calif.). After two additional washings in WB, cells were analyzed by fluorescence-activated cell sorting (FACSCalibur™). Specific fluorescence was calculated as fluorescence ratio between the mean fluorescence of the peptide-loaded diners and the mean fluorescence of the buffer-loaded control diners. Peptides names ending in N are amidated, while those ending in C are free acids. Each peptide-loaded diner complex was tested at least twice with two different T cell clones (3-3F4 and VB57). The fluorescence indices indicated in the Figure are an average of both experiments.
# T cell clone 3-3F4 [3] = experiment: Chromium release assay, peptide-sensitized targets lysed by T cell clone 3-3F4; assay type: cell-based, human; conditions: for Conc. (nM): concentration of peptide in which specific killing was between 15 and 30 percent: HLA A*0201-restricted EBVLCL targets, 3-3F4 effectors, E:T=5, 10-fold dilutions 500-0.00005 nM; for recognition by T cell clone 3-3F4 (in words): chromium release assay; for Peptide Concentration (nM), Free Acid, 3-3F4 / Peptide Concentration (nM), Amide, 3-3F4: chromium release, T cell clone 3-3F4; for Peptide Concentration (nM), Amide, 3-3F4: carboxyl terminal amide peptide
# Protocol: Nonamer peptides with the substitutions as shown at each position were synthesized as described in Example 1. […] Results of these assays are shown in the right-hand column of Table II, in terms of concentration of peptide (nM) in which specific killing was between 15 and 30 percent. Results presented are the average from at least three independent experiments carried out on different days using different batches of T cell […]. Peptides were tested using 10-fold dilutions, ranging from 500-0.00005 nM.
# (§1) To take advantage of the increased immunogenicity of peptides 44 and 46, while maintaining the universal recognition of the native peptide, library-directed changes were made to peptides 44 and 46, substituting back the native amino acids. A series of 21 peptides were constructed based upon the sequence of the tetra-substituted peptides 44 and 46 in each of the carboxyl terminal amidated and free acid forms. The peptides contained single, double, or triple substitutions of amino acids of the native sequence at the positions indicated. These peptides were assayed utilizing a standard chromium release assay with the screening T cell clone, 3-3F4, and a representative T cell clone (VB57) from another individual expressing a different T cell receptor.
# HLA A*0201 = target: T1, HLA A*0201 (Homo sapiens, UniProt P04439, D140Y/D185E/D98H/E176V/E277Q/G131W/G231S/I119V/I121R/I166T/I218V/L300P/L318F/N151K/N90K/P208A/P217A/Q86G/Q94H/R138H/R169H/T345S); experiment: T2 assembly assay (MHC binding affinity); conditions: for difference between acid and amide forms in binding to HLA A*0201: T2 assembly assay; for MHC affinity (fluorescence ratio) by T2 assembly assay: T2 cells, 100 μM peptide overnight, mAb BB7.2
# T1 construct: endogenous in cells; host or cells: T2 cells (TAP-deficient); β2-microglobulin purchased from Sigma, catalogue number not given
# Protocol: See the methods of Nijman et al., Eur. J. Immunol. 23:1215-1219 (1993).
# For each analog to be tested, 250,000 T2 cells were washed twice and resuspended in serum free IMDM and incubated overnight with 100 μM peptide together with 15 μg/ml human β2-microglobulin (Sigma™, Lt. Louis, Mo.) at 37° C. in a 5% CO2 incubator. […] After washing twice with cold buffer, FITC-conjugated rat anti-mouse IgG2a/2b (1:40 dilution; Pharmingen™, San Diego, Calif.) was added and incubated for another 30 minutes at 4° C. The cells were washed twice in cold buffer, and mean fluorescence intensity (MFI) of 10^4 gated cells was measured using a FACSCalibur™.
# Fluorescence ratio is defined as mean fluorescence with peptide/mean fluorescence without peptide. Results for the amidated peptides indicate only slight changes in MHC binding.
# [4] = tested on: peripheral blood CTL of HCMV-seropositive HLA A*0201 donors; assay type: cell-based, human; conditions: amidated peptides
# Protocol: Sixteen to twenty-four million of the ficoll-separated peripheral blood mononuclear cells were incubated 2-3 hours at 37° C. in a 5% CO2 incubator with 100 μM HCMV PP65495-503 peptide (SEQ ID NO: 1) in a volume of 100 μl of T cell culture medium (IVSTCM). IVSTCM consists of RPMI-1640 supplemented with 20% heat inactivated HAB serum, 10 IU/ml r-IL2 (Chiron™, Emeryville, Calif.); 25 mM Hepes Buffer Solution, 50 U/ml penicillin, 50 μg/ml streptomycin, 2 mM L-glutamine and 0.5 mM sodium pyruvate (Gibco™, Rockville, Md.). […] After the incubation period, the cells, now presenting pp65495-503 were resuspended in 2 ml IVSTCM, and γ-irradiated (2,400 rads) using the Isomedic Model 19 Gammator (Nuclear Canada, Parsippany, N.J.).
# During the peptide incorporation procedure, an additional aliquot of 10-20 million cells from the same freshly separated peripheral blood mononuclear cells was depleted of CD4^+, CD16^+ and CD56^+ cells as follows. […] The resulting population was >80% CD8^+ as determined using a FAGSCalbur™ fluorescence activated cell sorter (BD Immunocytomeyry Systems™, Palo Alto, Calif.). […]
# Peripheral blood from separate individuals was stimulated with peptides 115, 118, and 193 and subjected to a chromium release assay. […] Lymphocytes from three individuals were used for all four peptides, including SEQ ID NO:1, and one individual was evaluated with 193 peptide and the positive control.
# [5] = tested on: T cell clones from HLA A*0201 individuals seropositive for HCMV; conditions: for recognition by T cell clones other than 3-3F4: four additional T cell clones from different HCMV-seropositive volunteers, up to 5 nM; for T cell clones giving greater specific cytotoxicity at a lower concentration than the native sequence: five T cell clones, EBVLCL targets sensitized at 5.0 or 0.5 nM
# Protocol: Chromium release assays were performed according to the methods of (20). Briefly, target cell lines (antigen presenting cells which present pp65495-503) were labeled for one hour with 200 μCi/ml ^51Cr (ICN™, Costa Mesa, Calif.). HCMV infected targets were prepared as follows. Five-hundred thousand fibroblasts were pretreated with 800 U/10^6 recombinant IFN-γ, (Preprotech™, Rocky Hill, N.J.) to upregulate MHC class I expression and HCMV was added at an m.o.i. of 4. Cells were incubated with virus for two hours at 37° C., in a 5% CO2 incubator. Fresh FBM containing IFN-γ was then added and the cells incubated for an additional 14 hours. Infected fibroblasts were trypsinized, labeled with ^51Cr as described above and used in the assay at an effector-to-target ratio (E/T) of 50 and 10. Epstein-Barr virus transformed B cell lines (EBVLCL) were generated following standard technology using the supernatant of EBV-infected marmoset cells. EBVLCL were grown in medium consisting of RPMI-1640 (Gibco™, Rockville, Md.) supplemented with 10% FBS, 10 mM Hepes Buffer Solution (Irvine Scientific™, Santa Ana, Calif.), penicillin, streptomycin and L-glutamine as described for fibroblast medium. The cells used as targets were prepared by pulsing with […] pp65495-503 peptide, and used at an E/T of 25 and 5. For PS-SCL screening and titration of analog peptides, T2 cells, maintained as described in Diamond et al., Blood 90:1751-1767 (1997), were pulsed with serial peptide dilutions for use as targets for T cell clone effectors at an E/T of 5.
# In the assay, loaded targets and effectors were mixed in culture and incubated for four hours, at which time chromium release was measured. Supernatants were collected on filter frames (Skatron™, Oslo, Norway) and radioactivity determined in a Cobra II gamma counter (Packard™, Meriden, Conn.). For each assay, spontaneous release from the target cells in the absence of effector CTL and maximum possible release after treatment with 2% SDS (Baker Chemicals™, Phillipsburg, N.J.) was determined. Specific cytotoxicity was defined as: 100×[(Re−Rs)/Max−Rs)], where Re=experimental release, and Rs=spontaneous release.
# The T cell clones were stimulated in vitro with the native sequence of pp65495-503 (SEQ ID NO:1) as described in Example 2.
# T cell clone VB57 = experiment: Chromium release assay, peptide-sensitized targets lysed by T cell clone VB57; assay type: cell-based, human; conditions: for Peptide Concentration (nM), Amide, VB57: carboxyl terminal amide peptide
# From the text: as §1
substance,measurement,setting,value
"NLVPMVATV [Peptide A7C, reference compound]",EC50,T cell clone 3-3F4 [1],0.02 nM
same,HLA-Ig dimer binding to T cell clone 3-3F4,T cell clone 3-3F4 [2],bound well
same,Conc. (nM): concentration of peptide in which specific killing was between 15 and 30 percent,T cell clone 3-3F4 [3],0.5 nM
YLLPMVVSV-NH2 [Peptide 44N],difference between acid and amide forms in binding to HLA A*0201,HLA A*0201,substantial binding differences
same,MHC affinity (fluorescence ratio) by T2 assembly assay,HLA A*0201,not dramatically different from the native sequence
same,recognition by individuals' peripheral blood T cells after in vitro stimulation with the peptide,[4],only T cells from the individual from whom the PS-SCL screen clone was derived showed any positive response
same,recognition by T cell clones other than 3-3F4,[5],No T cell clone other than 3-3F4 recognized
same,recognition by T cell clones other than 3-3F4,[5]; listed as 44,not recognized by any of the T cell clones in the cohort
same,HLA-Ig dimer binding to T cell clone 3-3F4,T cell clone 3-3F4 [2],poor binders
same,Conc. (nM): concentration of peptide in which specific killing was between 15 and 30 percent,T cell clone 3-3F4 [3],0.00005 nM
same,recognition by T cell clone 3-3F4 (in words),T cell clone 3-3F4 [3],better recognized than the native epitope sequence
NLLPMVASV-NH2 [Peptide 118N],T cell clones giving greater specific cytotoxicity at a lower concentration than the native sequence,[5],three out of five
YLLPMVTSV-NH2 [Peptide 46N],difference between acid and amide forms in binding to HLA A*0201,HLA A*0201,substantial binding differences
same,MHC affinity (fluorescence ratio) by T2 assembly assay,HLA A*0201,not dramatically different from the native sequence
same,recognition by individuals' peripheral blood T cells after in vitro stimulation with the peptide,[4],only T cells from the individual from whom the PS-SCL screen clone was derived showed any positive response
same,recognition by T cell clones other than 3-3F4,[5],No T cell clone other than 3-3F4 recognized
same,recognition by T cell clones other than 3-3F4,[5]; listed as 46,not recognized by any of the T cell clones in the cohort
same,HLA-Ig dimer binding to T cell clone 3-3F4,T cell clone 3-3F4 [2],poor binders
same,Conc. (nM): concentration of peptide in which specific killing was between 15 and 30 percent,T cell clone 3-3F4 [3],0.0005 nM
same,recognition by T cell clone 3-3F4 (in words),T cell clone 3-3F4 [3],better recognized than the native epitope sequence
YLVPMVATV-NH2 [Peptide 193N],T cell clones giving greater specific cytotoxicity at a lower concentration than the native sequence,[5],two out of five
"124C: nonamer YLVPMVVSV, SEQ ID NO 70 (YLVPMVVSV-OH) [Peptide 124C]","Peptide Concentration (nM), Free Acid, 3-3F4",T cell clone 3-3F4 [3],>5 nM
same,"Peptide Concentration (nM), Free Acid, VB57",T cell clone VB57,>5 nM
YLVPMVASV-NH2 [Peptide 115N],T cell clones giving greater specific cytotoxicity at a lower concentration than the native sequence,[5],two out of five
"127N: nonamer NLLPMVTSV amide, SEQ ID NO 67 (NLLPMVTSV-NH2) [Peptide 127N]","Peptide Concentration (nM), Amide, 3-3F4",T cell clone 3-3F4 [3],0.05 nM
same,"Peptide Concentration (nM), Amide, VB57",T cell clone VB57,>5 nM
"194C: nonamer NLLPMVATV, SEQ ID NO 40 (NLLPMVATV-OH) [Peptide 194C]","Peptide Concentration (nM), Free Acid, 3-3F4",T cell clone 3-3F4 [3],>5 nM
same,"Peptide Concentration (nM), Free Acid, VB57",T cell clone VB57,>5 nM
"112C: nonamer NLVPMVASV, SEQ ID NO 46 (NLVPMVASV-OH) [Peptide 112C]","Peptide Concentration (nM), Free Acid, 3-3F4",T cell clone 3-3F4 [3],5 nM
same,"Peptide Concentration (nM), Free Acid, VB57",T cell clone VB57,0.5 nM
"194N: nonamer NLLPMVATV amide, SEQ ID NO 39 (NLLPMVATV-NH2) [Peptide 194N]","Peptide Concentration (nM), Amide, 3-3F4",T cell clone 3-3F4 [3],0.05 nM
same,"Peptide Concentration (nM), Amide, VB57",T cell clone VB57,0.5 nM
"110N: nonamer NLVPMVVTV amide, SEQ ID NO 41 (NLVPMVVTV-NH2) [Peptide 110N]","Peptide Concentration (nM), Amide, 3-3F4",T cell clone 3-3F4 [3],0.05 nM
same,"Peptide Concentration (nM), Amide, VB57",T cell clone VB57,>5 nM
"123N: nonamer YLLPMVASV amide, SEQ ID NO 77 (YLLPMVASV-NH2) [Peptide 123N]","Peptide Concentration (nM), Amide, 3-3F4",T cell clone 3-3F4 [3],0.05 nM
same,"Peptide Concentration (nM), Amide, VB57",T cell clone VB57,0.5 nM
